pKd: −log10 of the molar value. Read-outs that look alike come from different tables or passages of the source.
Key:
CaM [1] = target: T1, CaM (Bos taurus, UniProt P62157); assay: Pull-down assay with immobilized protein and LSM libraries; format: binding, bovine; conditions: 1:2 stoichiometry assumed, read-out: Surface mapping KD (apparent)
T1 construct: made in house; host or cells: E. coli BL21 (DE3)
Outline: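 His-tagged protein immobilized on Co-NTA resin, equilibrated 30 min at room temperature with LSM sublibraries (64 members, […]), equimolar protein to total probe. CaM buffer: 20 mM HEPES pH 7.4, 150 mM NaCl, 5 mM CaCl2. Bound fractions from HPLC-MS loss of unbound probe versus protein-free resin control; Kd derived.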

RecQ-WH = target: T2, RecQ-WH (Escherichia coli, UniProt P15043); assay: as above; design: species or system E. coli; conditions: 1:1 binding assumed, read-out: Surface mapping KD (apparent)
T2 construct: coding for residues 408– 523 of E. coli RecQ; made in house; host or cells: E. coli BL21(DE3)
Description: Pull-down assays with immobilized test proteins and foldameric LSM libraries were carried out. Proteins were equilibrated with LSM probes, and equilibrium bound fractions (FB) were determined from the unbound fractions measured by HPLC-MS methods. Hits were corrected with background binding of the resin. The protocol allowed all binding events to equilibrate irrespective of affinity, specificity, and binding kinetics. This was essential to judge overall druggability and promiscuity. Importantly, the concentration of protein and the total concentration of foldameric LSMs were equimolar, which minimized competition between the probes. This experimental setup approximated independent binding of individual library members. Results were visualized as heat maps of dissociation constants (Fig. 3).
Pull-down assay and data analysis
Pull-down assay. LSM sublibraries were screened separately as previously described.(2) Experiments were performed in the following buffers: (i) 20 mM pH 7.4 HEPES, 150 mM NaCl, 5 mM CaCl2 for CaM; (ii) 50 mM pH 7.4 HEPES, 150 mM NaCl, 1 mM TCEP, 1 mM CaCl2 for S100 proteins; (iii) 20 mM pH 7.4 HEPES, 150 mM NaCl, 1 mM TCEP for Gal-1 and (iv) 20 mM pH 7.4 HEPES, 150 mM NaCl for RecQ-WH. Assays were performed in paper filter spin cups (Thermo Scientific) with sample volumes of 100 µl. Hexahistidine-tagged proteins were immobilized on previously washed Co-NTA resin (TALON, Takara Bio USA, Inc., Mountain View, CA) in 64 µM final concentration. LSM sublibrary was added, in which each of the 64 library members were used at a concentration of 1 µM. Samples were incubated at room temperature for 30 min with shaking at 100 rpm. Then, samples were centrifuged at 1000 rpm for 2 min and washed with 100 µl pull-down buffer to remove unbound compounds.
The control experiments were performed using the same compounds and the resin but without the immobilized protein. In case of competitive assays, competitor peptides were added to LSM sublibrary samples in 200 µM final concentration. In the case of Gal-1, lactose (competitor) was used in a concentration of 10 mM. Experiments were performed at least twice. Mean […]
LC-MS methods and parameters. HPLC/ESI-MS analysis was used to characterize the samples from the pull-down assay. LC-MS analysis was performed with a Thermo Scientific Dionex UltiMate 3000 HPLC system interfaced to an LTQ ion trap mass spectrometer (Thermo Electron Corp., San Jose, CA, USA). Samples were injected onto an Aeris Widepore XB-C18 (250 x 4.6 mm) analytical HPLC column using gradient elution 5-80 % solution B during 25 minutes. For pull-down samples, eluent composition was 0.1% acetic acid in distilled water (Solution A) and 0.1% acetic acid in acetonitrile (solution B). Mass spectra were acquired in full scan mode from 200 to 2000 m/z range. For overlapping peaks, selective reaction monitoring (SRM) was […]
MS data analysis. Thermo Xcalibur 2.2 software was used for peak identification and integration. The majority of the foldameric fragments could be resolved independently via HPLC-MS/MS measurements based on molecular weight, MS fragmentation pattern and retention time. Peaks of some foldamers with β3-hIle or β3-hLeu in position R2 could not be resolved, these were integrated and averaged. In the processing method, each sample component was associated to a chromatographic peak based on previously identified mass (m/z) and retention time (ref (2) and Table S7-10). Using ICIS peak detection algorithm, the general detection and integration criteria were: smoothing points: 5, baseline window: 80, area noise factor: 5, peak noise factor: 10. Using these processing setups, all raw data files were reprocessed together and analyzed. Errors in peak identification during the automatic processing were corrected manually.
Calculation of the discussed parameters
1. Bound fractions (FB.) were calculated from the HPLC-MS intensity loss of the LSM probes compared to the control where no protein was immobilized to the resin: […]

Gal-1 [2] = target: T3, Gal-1 (Homo sapiens, UniProt P09382); assay: as above; format: binding; conditions: 1:1 binding assumed, read-out: Surface mapping KD (apparent)
T3 construct: made in house; host or cells: E. coli BL21(DE3)
Outline: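 His-tagged protein immobilized on Co-NTA resin (64 µM) in 20 mM HEPES pH 7.4, 150 mM NaCl, equilibrated 30 min at room temperature with foldamer LSM sublibraries at equimolar total concentration. Unbound fractions quantified by HPLC-MS versus protein-free resin control; apparent KD assumes 1:1 binding.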

S100B = target: T4, S100B (Homo sapiens, UniProt P04271); assay: as above; format: binding; conditions: 1:1 binding assumed, read-out: Surface mapping KD (apparent)
T4 construct: made in house; host or cells: Escherichia coli BL21(DE3)
T4 sequence (P04271 1-92): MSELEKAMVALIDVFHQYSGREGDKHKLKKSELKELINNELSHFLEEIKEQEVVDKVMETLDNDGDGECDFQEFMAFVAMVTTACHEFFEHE
Outline: (§1)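 Buffers were HEPES pH 7.4 with 150 mM NaCl, plus 1 mM TCEP and 1 mM CaCl2 (50 mM HEPES) for S100A4 and S100B, 1 mM TCEP for Gal-1, and no additive for RecQ-WH. Immobilized protein at 64 µM was equilibrated 30 min with the LSM sublibrary, and unbound probes were measured by LC-MS.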

S100A4 = target: T5, S100A4 (Homo sapiens, UniProt P26447); assay: as above; format: binding; conditions: 1:1 binding assumed, read-out: Surface mapping KD (apparent)
T5 construct: made in house; host or cells: Escherichia coli BL21(DE3)
Outline: as §1

Gal-1 [3] = target: T3, Gal-1; assay: Competition pull-down with lactose; format: binding; conditions: H14 library; lactose 10 mM; read-out: Surface mapping KD (apparent), competition
Outline: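 His6-tagged proteins immobilized on Co-NTA resin at 64 µM final with 64-member LSM foldamer sublibraries (1 M each, as printed) in pH 7.4 HEPES/NaCl buffers (Ca2+/TCEP per target), 30 min RT; competitor peptides 200 µM final, lactose 10 mM for Gal-1. Bound fractions from LC-MS loss vs protein-free resin; KD assuming 1:1 binding.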

CaM [4] = target: T1, CaM; assay: Competition pull-down with native ligand TRPV1-Ct15; format: binding, bovine; conditions: H14 library; competitor peptide 200 µM; read-out: Surface mapping KD (apparent), competition

T5 sequence (P26447 whole entry): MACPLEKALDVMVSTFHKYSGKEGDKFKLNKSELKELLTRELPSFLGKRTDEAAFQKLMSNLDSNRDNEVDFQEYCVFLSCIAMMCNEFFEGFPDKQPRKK
T3 sequence (P09382 whole entry): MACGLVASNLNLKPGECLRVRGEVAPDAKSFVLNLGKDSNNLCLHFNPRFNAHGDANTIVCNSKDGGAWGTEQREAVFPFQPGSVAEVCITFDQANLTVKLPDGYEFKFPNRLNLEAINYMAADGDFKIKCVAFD
T2 sequence (P15043 408-523): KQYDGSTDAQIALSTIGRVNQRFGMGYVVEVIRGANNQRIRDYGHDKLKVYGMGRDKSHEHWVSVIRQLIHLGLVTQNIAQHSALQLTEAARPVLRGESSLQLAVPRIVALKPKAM

SMILES | pKd (Gal-1 [3]) | pKd (RecQ-WH; H14 library) | pKd (S100B; H14 library) | pKd (CaM [1]; H14 library) | pKd (S100A4; H14 library) | further results
N=C(N)NCCC[C@@H](CC(=O)N[C@H]1CCC[C@@H]1C(=O)N[C@H]1CCC[C@@H]1C(N)=O)NC(=O)[C@H]1CCC[C@@H]1NC(=O)[C@H]1CCC[C@@H]1NC(=O)C[C@H](Cc1ccccc1)NC(=O)[C@H]1CCC[C@@H]1NC(=O)[C@H]1CCC[C@@H]1N [H12 FR] |  |  |  |  |  | pKd (CaM [1]; H12 library): 3.90; pKd (RecQ-WH; H12 library): 3.41; pKd (Gal-1 [2]; H12 library): 3.85; pKd (S100B; H12 library): 4.55
N=C(N)NCCC[C@@H](CC(=O)N[C@H]1CCC[C@@H]1C(=O)N[C@H]1CCC[C@@H]1C(N)=O)NC(=O)[C@H]1CCC[C@@H]1NC(=O)[C@H]1CCC[C@@H]1NC(=O)C[C@H](Cc1c[nH]c2ccccc12)NC(=O)[C@H]1CCC[C@@H]1NC(=O)[C@H]1CCC[C@@H]1N [H12 WR] |  |  |  |  |  | pKd (CaM [1]; H12 library): 3.65; pKd (RecQ-WH; H12 library): 3.69; pKd (S100A4; H12 library): 3.49; pKd (S100B; H12 library): 4.82
NCCCC[C@@H](CC(=O)N[C@H]1CCC[C@@H]1C(=O)N[C@H]1CCC[C@@H]1C(N)=O)NC(=O)[C@H]1CCC[C@@H]1NC(=O)[C@H]1CCC[C@@H]1NC(=O)C[C@H](Cc1ccc(O)cc1)NC(=O)[C@H]1CCC[C@@H]1NC(=O)[C@H]1CCC[C@@H]1N [H12 YK] |  |  |  |  |  | pKd (CaM [1]; H12 library): 4.38; pKd (RecQ-WH; H12 library): 3.55; pKd (Gal-1 [2]; H12 library): 3.43; pKd (S100B; H12 library): 4.07
CC[C@H](C)[C@@H](CC(=O)N[C@H]1CCCC[C@@H]1C(N)=O)NC(=O)[C@H]1CCCC[C@@H]1NC(=O)[C@H]1CCCC[C@@H]1NC(=O)C[C@H](CC(=O)O)NC(=O)[C@H]1CCCC[C@@H]1N [H14 DI] | 3.39 | 3.37 |  |  |  | 
NCCCC[C@@H](CC(=O)N[C@H]1CCCC[C@@H]1C(N)=O)NC(=O)[C@H]1CCCC[C@@H]1NC(=O)[C@H]1CCCC[C@@H]1NC(=O)C[C@H](CC(=O)O)NC(=O)[C@H]1CCCC[C@@H]1N [H14 DK] | 3.39 | 3.50 | 3.84 |  |  | 
CC(C)C[C@@H](CC(=O)N[C@H]1CCCC[C@@H]1C(N)=O)NC(=O)[C@H]1CCCC[C@@H]1NC(=O)[C@H]1CCCC[C@@H]1NC(=O)C[C@H](CC(=O)O)NC(=O)[C@H]1CCCC[C@@H]1N [H14 DL] | 3.39 | 3.37 |  |  |  | 
NC(=O)[C@H]1CCCC[C@@H]1NC(=O)C[C@H](Cc1c[nH]c2ccccc12)NC(=O)[C@H]1CCCC[C@@H]1NC(=O)[C@H]1CCCC[C@@H]1NC(=O)C[C@H](CC(=O)O)NC(=O)[C@H]1CCCC[C@@H]1N [H14 DW] |  | 3.78 | 3.70 |  |  | pKd (CaM [4]): 3.36
NC(=O)[C@H]1CCCC[C@@H]1NC(=O)C[C@H](Cc1c[nH]c2ccccc12)NC(=O)[C@H]1CCCC[C@@H]1NC(=O)[C@H]1CCCC[C@@H]1NC(=O)C[C@H](CCC(=O)O)NC(=O)[C@H]1CCCC[C@@H]1N [H14 EW] | 3.34 | 3.67 | 3.52 |  |  | 
CSCC[C@@H](CC(=O)N[C@H]1CCCC[C@@H]1C(=O)N[C@H]1CCCC[C@@H]1C(=O)N[C@@H](CCCNC(=N)N)CC(=O)N[C@H]1CCCC[C@@H]1C(N)=O)NC(=O)[C@H]1CCCC[C@@H]1N [H14 MR] | 3.51 | 3.34 | 4.04 | 4.72 | 3.61 | pKd (Gal-1 [2]; H14 library): 3.40
C[C@@H](CC(=O)N[C@H]1CCCC[C@@H]1C(N)=O)NC(=O)[C@H]1CCCC[C@@H]1NC(=O)[C@H]1CCCC[C@@H]1NC(=O)C[C@H](CCCNC(=N)N)NC(=O)[C@H]1CCCC[C@@H]1N [H14 RA] |  | 3.34 | 3.73 | 3.95 |  | pKd (CaM [4]): 3.35
CC[C@H](C)[C@@H](CC(=O)N[C@H]1CCCC[C@@H]1C(N)=O)NC(=O)[C@H]1CCCC[C@@H]1NC(=O)[C@H]1CCCC[C@@H]1NC(=O)C[C@H](CCCNC(=N)N)NC(=O)[C@H]1CCCC[C@@H]1N [H14 RI] |  | 3.63 | 4.51 | 5.00 | 4.29 | 
CC(C)C[C@@H](CC(=O)N[C@H]1CCCC[C@@H]1C(N)=O)NC(=O)[C@H]1CCCC[C@@H]1NC(=O)[C@H]1CCCC[C@@H]1NC(=O)C[C@H](CCCNC(=N)N)NC(=O)[C@H]1CCCC[C@@H]1N [H14 RL] |  | 3.63 | 4.51 | 5.00 | 4.29 | 
CSCC[C@@H](CC(=O)N[C@H]1CCCC[C@@H]1C(N)=O)NC(=O)[C@H]1CCCC[C@@H]1NC(=O)[C@H]1CCCC[C@@H]1NC(=O)C[C@H](CCCNC(=N)N)NC(=O)[C@H]1CCCC[C@@H]1N [H14 RM] |  | 3.53 | 4.10 | 4.52 | 4.03 | 
N=C(N)NCCC[C@@H](CC(=O)N[C@H]1CCCC[C@@H]1C(=O)N[C@H]1CCCC[C@@H]1C(=O)N[C@H](CC(=O)N[C@H]1CCCC[C@@H]1C(N)=O)Cc1c[nH]c2ccccc12)NC(=O)[C@H]1CCCC[C@@H]1N [H14 RW] |  | 3.70 | 4.89 | 6.22 | 4.25 | 
NC(=O)[C@H]1CCCC[C@@H]1NC(=O)C[C@H](Cc1ccccc1)NC(=O)[C@H]1CCCC[C@@H]1NC(=O)[C@H]1CCCC[C@@H]1NC(=O)C[C@H](CO)NC(=O)[C@H]1CCCC[C@@H]1N [H14 SF] | 3.51 | 3.74 | 3.98 | 4.52 | 4.15 | pKd (Gal-1 [2]; H14 library): 3.57
NC(=O)[C@H]1CCCC[C@@H]1NC(=O)C[C@H](CCC(=O)O)NC(=O)[C@H]1CCCC[C@@H]1NC(=O)[C@H]1CCCC[C@@H]1NC(=O)C[C@H](Cc1c[nH]c2ccccc12)NC(=O)[C@H]1CCCC[C@@H]1N [H14 WE] |  | 3.86 |  | 3.72 | 3.37 | 
NCCCC[C@@H](CC(=O)N[C@H]1CCCC[C@@H]1C(N)=O)NC(=O)[C@H]1CCCC[C@@H]1NC(=O)[C@H]1CCCC[C@@H]1NC(=O)C[C@H](Cc1ccc(O)cc1)NC(=O)[C@H]1CCCC[C@@H]1N [H14 YK] |  | 3.39 | 4.05 | 4.77 | 3.84 | 

— PMC8162404, “Proteomimetic surface fragments distinguish targets by function” (Chemical Science, 2020)
